Structures can show the parent of a compound that is named as a salt.
melting point	SMILES
77 to 79 °C (dec.)	CCN(CC)Cc1ccccc1CCC1=C(C(=O)OC)C(c2c(Cl)cccc2Cl)C(C(=O)OC)=C(CC(=O)N2CCN(C3CC4CCC(C3)N4C)CC2)N1 (stereo not shown) (as salt: HCl)
168 °C (dec.)	COC(=O)C1=C(CCc2ccccc2COCCN2CCCC2)NC(CC(=O)N2CCN(C3CC4CCC(C3)N4C)CC2)=C(C(=O)OC)C1c1c(Cl)cccc1Cl.O=C(O)CCC(=O)O (stereo not shown)
198 to 200 °C (dec.)	COC(=O)C1=C(CCc2ccccc2C(=O)N2CCNCC2)NC(CC(=O)N2CCN(C3CC4CCC(C3)N4C)CC2)=C(C(=O)OC)C1c1c(Cl)cccc1Cl (stereo not shown) (as salt: HCl)
158 to 160 °C (dec.)	CNC(=O)CCC(=O)NCc1ccccc1CCC1=C(C(=O)OC)C(c2c(Cl)cccc2Cl)C(C(=O)OC)=C(CC(=O)N2CCN(C3CC4CCC(C3)N4C)CC2)N1 (stereo not shown) (as salt: citrate)
151 °C	CCNCCOCc1ccccc1CCC1=C(C(=O)OC)C(c2c(Cl)cccc2Cl)C(C(=O)OC)=C(CC(=O)N2CCN(C34CCCC(CC3)N4C)CC2)N1 (stereo not shown) (as salt: citrate)
143 °C	COC(=O)C1=C(CCc2ccccc2NS(C)(=O)=O)NC(CC(=O)N2CCN(C3CC4CCC(C3)N4C)CC2)=C(C(=O)OC)C1c1c(Cl)cccc1Cl (stereo not shown) (as salt: HCl)
218 to 220 °C (dec.)	COC(=O)C1=C(CCc2ccccc2NS(=O)(=O)C(F)(F)F)NC(CC(=O)N2CCN(C3CC4CCC(C3)N4C)CC2)=C(C(=O)OC)C1c1c(Cl)cccc1Cl (stereo not shown) (as salt: HCl)

From patent publication US6653313B2, “1,4-dihydropyridine compounds as bradykinin antagonists” (Warner-Lambert Company LLC, priority 2000, dated 2003)
